Where two headings read alike, the source gives them in different places. Numbered stars: 1 amine (or outer) side, 2 acyl side, 3 side chain; on linkers, the order of the positions; unused ones are H or OH. Square brackets hold non-standard residues; d marks the D form. Side chains are listed from the residue outwards. Peptide text beside a SMILES is read from it. * marks the point of attachment. C20 diacid = O=C(O)CCCCCCCCCCCCCCCCCCC(=O)*; γGlu = O=C(O)[C@H](CCC(=O)[*:2])N[*:1]; AEEA = NCCOCCOCC(=O)O; Aib = CC(C)(N)C(=O)O

Data set [1] in a line: Turbidity of crude library peptides (absorbance at 600 nm). The note with it: Physical stability of peptides. The class given is physicochemical. As to the method: (§1) Peptides were dissolved in buffers (50 mM sodium acetate at pH 4.0, or 50 mM sodium phosphate at pH 7.0) to 267 μM and incubated for 1-2 hours at room temperature. The samples were then divided into two replicates of 80 μl in a black 384 well plate (μ-clear, Greiner Bio-One) and mixed with Thioflavin T (ThT) to a final concentration of 4 μM. The plate was centrifuged for 2 min at 2000 rpm to remove air bubbles, sealed, and placed in a plate reader (CLARIOstar, BMG). Firstly, turbidity of the samples was measured as the absorbance at 600 nm. Secondly, the plate reader temperature was set to 40° C. and the fluorescence was measured every 10 min for 72 hours by exciting the ThT at 450 nm and measuring the emission at 480 nm. Samples were stressed by shaking the plate at 700 rpm (linear) for five minutes before every measurement, and fibril formation was determined as the average emission for each sample.

Data set [2] is described as follows: Fibril formation of crude library peptides (Thioflavin T). The class given is physicochemical. Details: key: average ThT fluorescence emission at 480 nm (ex 450 nm), raw units. To be noted: Physical stability of peptides. As to the method: as §1
For the next data set, the target named is GLP1R (Homo sapiens, UniProt P43220). The data set can be described thus: hGLP1R potency, cAMP accumulation in CHO-K1 cells stably overexpressing hGLP1R. The class given is cell-based. On the set-up: host or cells: CHO-K1. To be noted: for Selectivity: SCTR EC50/GLP1R EC50 ratio; for EC50: cAMP accumulation, CHO-K1 cells overexpressing hGLP1R; for SCTR EC50/GLP1R EC50 ratio: selectivity for hGLP1R over hSCTR, cAMP accumulation in CHO-K1 cells. An outline of the steps: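 Potency reflects cAMP accumulation measured by time-resolved fluorescence energy transfer after a 30 min room-temperature stimulation in IBMX-containing (0.5 mM) DPBS with casein. Purified peptides were tested in duplicate over eleven threefold dilutions, and EC50 was obtained from sigmoid concentration-response fitting.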
Chain of GLP1R (P43220 24-463): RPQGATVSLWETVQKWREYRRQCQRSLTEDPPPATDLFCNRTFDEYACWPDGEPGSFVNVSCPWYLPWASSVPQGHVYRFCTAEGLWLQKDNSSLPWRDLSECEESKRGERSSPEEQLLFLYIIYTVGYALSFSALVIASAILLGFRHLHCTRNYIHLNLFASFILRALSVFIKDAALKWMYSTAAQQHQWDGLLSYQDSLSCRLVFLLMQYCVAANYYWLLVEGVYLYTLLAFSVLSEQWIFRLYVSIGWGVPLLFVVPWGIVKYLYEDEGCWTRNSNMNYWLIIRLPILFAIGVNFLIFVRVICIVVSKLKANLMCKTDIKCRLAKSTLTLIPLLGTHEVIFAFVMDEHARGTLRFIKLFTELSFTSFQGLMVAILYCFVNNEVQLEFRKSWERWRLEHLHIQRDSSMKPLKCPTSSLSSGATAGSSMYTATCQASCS
On the technique in general: Cyclic AMP is a second messenger, typically raised through Gs and lowered through Gi signalling.

A further data set addresses SCTR (Homo sapiens, UniProt P47872). The data set can be described thus: hSCTR potency, cAMP accumulation in CHO-K1 cells stably overexpressing hSCTR. The class given is cell-based. Details: alternatively Euroscreen ES-712-AF; FAST-0161L; host or cells: CHO-K1. The note with it: cAMP accumulation, CHO-K1 cells overexpressing hSCTR. An outline of the steps:
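Potency reflects cAMP accumulation after 30 min agonist exposure at room temperature in hSCTR-expressing CHO-K1 cells, with 0.5 mM IBMX present to block phosphodiesterase. EC50 was derived by nonlinear regression.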

The mark [3] stands for this setting: read-out: pEC50 hGLPR1 (converted).
Setting [4] is: read-out: pEC50 hSCTR (converted).
Where [5] appears, read: read-out: hGLP1R pEC50 (converted).
Where [6] appears, read: read-out: hSCTR pEC50 (converted).

Chain of SCTR (P47872 23-440): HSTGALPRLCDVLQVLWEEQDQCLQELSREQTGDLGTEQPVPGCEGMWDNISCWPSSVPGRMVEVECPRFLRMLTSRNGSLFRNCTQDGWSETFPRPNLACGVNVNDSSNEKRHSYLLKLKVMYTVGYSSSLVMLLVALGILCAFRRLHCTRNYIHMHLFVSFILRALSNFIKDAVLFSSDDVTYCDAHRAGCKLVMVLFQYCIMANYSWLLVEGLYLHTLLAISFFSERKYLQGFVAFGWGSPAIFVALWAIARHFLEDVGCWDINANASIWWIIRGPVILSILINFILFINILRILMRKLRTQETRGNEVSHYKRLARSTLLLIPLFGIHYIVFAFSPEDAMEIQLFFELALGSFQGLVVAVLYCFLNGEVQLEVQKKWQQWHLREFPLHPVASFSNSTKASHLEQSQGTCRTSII

With `CC(C)C[C@H](NC(=O)[C@H](Cc1ccccc1)NC(=O)[C@H](CCCNC(=N)N)NC(=O)[C@H](CCC(N)=O)NC(=O)[C@H](C)NC(=O)[C@H](C)NC(=O)[C@H](C)NC(=O)[C@H](CCC(=O)O)NC(=O)[C@H](CCC(=O)O)NC(=O)[C@H](CCCCNC(=O)COCCOCCNC(=O)COCCOCCNC(=O)CC[C@H](NC(=O)CCCCCCCCCCCCCCCCCCC(=O)O)C(=O)O)NC(=O)[C@H](CC(C)C)NC(=O)[C@H](Cc1ccccc1)NC(=O)[C@H](CO)NC(=O)[C@@H](NC(=O)[C@H](CC(=O)O)NC(=O)[C@H](CO)NC(=O)[C@@H](NC(=O)[C@H](Cc1ccccc1)NC(=O)[C@@H](NC(=O)CNC(=O)[C@H](CCC(=O)O)NC(=O)C(C)(C)NC(=O)[C@@H](N)Cc1c[nH]cn1)[C@@H](C)O)[C@@H](C)O)C(C)C)C(=O)N[C@@H](CCC(=O)O)C(=O)N[C@@H](Cc1c[nH]cn1)C(=O)N[C@@H](CC(C)C)C(=O)N[C@H](C(N)=O)C(C)C` [compound 63] (H-H[Aib]EGTFTSDVSFLK([AEEA-AEEA-γGlu-C20 diacid])EEAAAQRFLEHLV-NH2), the “Turbidity (pH 7)” value in data set [1] came to 0.09. In addition, the Fibril formation in data set [2] came out at 9044. For the same compound, the Selectivity on GLP1R came out at 201002. For the same compound, the EC50 at GLP1R (setting [3]) is 0.0501 nM; on SCTR (setting [4]) it was 10000 nM.

As to `CC(C)C[C@H](NC(=O)[C@H](Cc1ccccc1)NC(=O)[C@H](CCCNC(=N)N)NC(=O)[C@H](CCC(N)=O)NC(=O)[C@H](CCC(N)=O)NC(=O)[C@H](C)NC(=O)[C@H](C)NC(=O)[C@@H](NC(=O)[C@H](CCC(=O)O)NC(=O)[C@H](CCCCNC(=O)COCCOCCNC(=O)COCCOCCNC(=O)CC[C@H](NC(=O)CCCCCCCCCCCCCCCCCCC(=O)O)C(=O)O)NC(=O)[C@H](CC(C)C)NC(=O)[C@@H](NC(=O)[C@H](CO)NC(=O)[C@@H](NC(=O)[C@H](CC(=O)O)NC(=O)[C@H](CO)NC(=O)[C@@H](NC(=O)[C@H](Cc1ccccc1)NC(=O)[C@@H](NC(=O)CNC(=O)[C@H](CCC(=O)O)NC(=O)C(C)(C)NC(=O)[C@@H](N)Cc1c[nH]cn1)[C@@H](C)O)[C@@H](C)O)C(C)C)C(C)C)[C@@H](C)O)C(=O)N[C@@H](CCC(=O)O)C(=O)N[C@@H](Cc1c[nH]cn1)C(=O)N[C@@H](CC(C)C)C(=O)N[C@H](C(N)=O)C(C)C` [compound 41] (H-H[Aib]EGTFTSDVSVLK([AEEA-AEEA-γGlu-C20 diacid])ETAAQQRFLEHLV-NH2), the “Turbidity (pH 7)” value in data set [1] was 0.08. The same compound had a Fibril formation in data set [2] of 109124. For the same compound, the Selectivity on GLP1R stood at 16199. For the same compound, the figures for the EC50 at GLP1R (setting [3]) and on SCTR (setting [4]) were 0.00794 nM and 126 nM, respectively.

In the case of `CC(C)C[C@H](NC(=O)[C@H](Cc1ccccc1)NC(=O)[C@H](CCCNC(=N)N)NC(=O)[C@H](CCC(N)=O)NC(=O)[C@H](CC(C)C)NC(=O)C(C)(C)NC(=O)[C@H](C)NC(=O)[C@H](CCC(=O)O)NC(=O)[C@H](CCC(=O)O)NC(=O)[C@H](CCCCNC(=O)COCCOCCNC(=O)COCCOCCNC(=O)CC[C@H](NC(=O)CCCCCCCCCCCCCCCCCCC(=O)O)C(=O)O)NC(=O)[C@H](CC(C)C)NC(=O)[C@H](Cc1ccc(O)cc1)NC(=O)[C@H](CO)NC(=O)[C@@H](NC(=O)[C@H](CC(=O)O)NC(=O)[C@H](CO)NC(=O)[C@@H](NC(=O)[C@H](Cc1ccccc1)NC(=O)[C@@H](NC(=O)CNC(=O)[C@H](CCC(=O)O)NC(=O)C(C)(C)NC(=O)[C@@H](N)Cc1c[nH]cn1)[C@@H](C)O)[C@@H](C)O)C(C)C)C(=O)N[C@@H](CCC(=O)O)C(=O)N[C@@H](CCC(=O)O)C(=O)N[C@@H](CC(C)C)C(=O)N[C@H](C(N)=O)C(C)C` [compound 151] (H-H[Aib]EGTFTSDVSYLK([AEEA-AEEA-γGlu-C20 diacid])EEA[Aib]LQRFLEELV-NH2), the “Turbidity (pH 7)” value in data set [1] is reported as 0.08. The compound further returned a Fibril formation in data set [2] of 3061. The results for the EC50 on GLP1R (setting [5]) and on SCTR (setting [6]) were 0.0251 nM and 126 nM, respectively. Besides, the “SCTR EC50/GLP1R EC50 ratio” value at GLP1R is reported as 5170.

Consider `CC(C)C[C@H](NC(=O)[C@H](Cc1ccccc1)NC(=O)[C@H](CCCNC(=N)N)NC(=O)[C@H](CCC(N)=O)NC(=O)[C@H](CC(C)C)NC(=O)C(C)(C)NC(=O)[C@H](C)NC(=O)[C@H](CCC(=O)O)NC(=O)[C@H](CCC(=O)O)NC(=O)[C@H](CCCCNC(=O)COCCOCCNC(=O)COCCOCCNC(=O)CC[C@H](NC(=O)CCCCCCCCCCCCCCCCCCC(=O)O)C(=O)O)NC(=O)[C@H](CC(C)C)NC(=O)C(C)(C)NC(=O)[C@H](CO)NC(=O)[C@@H](NC(=O)[C@H](CC(=O)O)NC(=O)[C@H](CO)NC(=O)[C@@H](NC(=O)[C@H](Cc1ccccc1)NC(=O)[C@@H](NC(=O)CNC(=O)[C@H](CCC(=O)O)NC(=O)C(C)(C)NC(=O)[C@@H](N)Cc1c[nH]cn1)[C@@H](C)O)[C@@H](C)O)C(C)C)C(=O)N[C@@H](CCC(=O)O)C(=O)N[C@@H](Cc1c[nH]cn1)C(=O)N[C@@H](CC(C)C)C(=O)N[C@H](C(N)=O)C(C)C` [compound 163] (H-H[Aib]EGTFTSDVS[Aib]LK([AEEA-AEEA-γGlu-C20 diacid])EEA[Aib]LQRFLEHLV-NH2), for which the “Turbidity (pH 7)” value in data set [1] was 0.08. In data set [2], this compound displayed a Fibril formation of 3983. For the same compound, the EC50 on GLP1R (setting [5]) is 0.0126 nM; at SCTR (setting [6]), 39.8 nM. The “SCTR EC50/GLP1R EC50 ratio” value at GLP1R is 3669.

Take `CC(C)C[C@H](NC(=O)[C@H](C)NC(=O)[C@H](C)NC(=O)[C@H](CCC(=O)O)NC(=O)[C@H](CCC(=O)O)NC(=O)[C@H](CCCCNC(=O)COCCOCCNC(=O)COCCOCCNC(=O)CC[C@H](NC(=O)CCCCCCCCCCCCCCCCCCC(=O)O)C(=O)O)NC(=O)[C@H](CC(C)C)NC(=O)[C@H](Cc1ccc(O)cc1)NC(=O)[C@H](CO)NC(=O)[C@@H](NC(=O)[C@H](CC(=O)O)NC(=O)[C@H](CO)NC(=O)[C@@H](NC(=O)[C@H](Cc1ccccc1)NC(=O)[C@@H](NC(=O)CNC(=O)[C@H](CCC(=O)O)NC(=O)C(C)(C)NC(=O)[C@@H](N)Cc1c[nH]cn1)[C@@H](C)O)[C@@H](C)O)C(C)C)C(=O)N[C@@H](CCC(N)=O)C(=O)N[C@@H](CCCNC(=N)N)C(=O)N[C@@H](Cc1ccccc1)C(=O)N[C@@H](CC(C)C)C(=O)N[C@@H](CCC(=O)O)C(=O)N[C@@H](Cc1c[nH]cn1)C(=O)N[C@@H](CC(C)C)C(=O)N[C@H](C(N)=O)C(C)C` [compound 137] (H-H[Aib]EGTFTSDVSYLK([AEEA-AEEA-γGlu-C20 diacid])EEAALQRFLEHLV-NH2): the “Turbidity (pH 7)” value in data set [1] was found to be 0.09. The compound further yielded a Fibril formation in data set [2] of 4019. Also, the EC50 on GLP1R (setting [5]) is 0.00794 nM; at SCTR (setting [6]), 79.4 nM. On GLP1R, the “SCTR EC50/GLP1R EC50 ratio” value is on record as 9970.

Turning to `CC(C)C[C@H](NC(=O)[C@H](Cc1ccccc1)NC(=O)[C@H](CCCNC(=N)N)NC(=O)[C@H](CCC(N)=O)NC(=O)[C@H](CCC(=O)O)NC(=O)[C@H](C)NC(=O)[C@H](C)NC(=O)[C@@H](NC(=O)[C@H](CCC(=O)O)NC(=O)[C@H](CCCCNC(=O)COCCOCCNC(=O)COCCOCCNC(=O)CC[C@H](NC(=O)CCCCCCCCCCCCCCCCCCC(=O)O)C(=O)O)NC(=O)[C@H](CC(C)C)NC(=O)[C@@H](NC(=O)[C@H](CO)NC(=O)[C@@H](NC(=O)[C@H](CC(=O)O)NC(=O)[C@H](CO)NC(=O)[C@@H](NC(=O)[C@H](Cc1ccccc1)NC(=O)[C@@H](NC(=O)CNC(=O)[C@H](CCC(=O)O)NC(=O)C(C)(C)NC(=O)[C@@H](N)Cc1c[nH]cn1)[C@@H](C)O)[C@@H](C)O)C(C)C)[C@@H](C)O)[C@@H](C)O)C(=O)N[C@@H](CCC(=O)O)C(=O)N[C@@H](Cc1c[nH]cn1)C(=O)N[C@@H](CC(C)C)C(=O)N[C@H](C(N)=O)C(C)C` [compound 42] (H-H[Aib]EGTFTSDVSTLK([AEEA-AEEA-γGlu-C20 diacid])ETAAEQRFLEHLV-NH2), in data set [1], the “Turbidity (pH 7)” value is 0.08. In addition, the Fibril formation in data set [2] worked out at 6253. Further, the Selectivity on GLP1R amounted to 209363. Further, the EC50 on GLP1R (setting [3]) was 0.0158 nM; on SCTR (setting [4]) it was 3160 nM.
